The results in this text go back to ChEMBL document CHEMBL4837233, “Inhibition of BACE1 and Amyloid-β Aggregation by Meroterpenoids from the Mushroom Albatrellus yasudae” (J Nat Prod, 2021).

One test addresses Beta-secretase 1 (Homo sapiens, UniProt P56817). Briefly: Inhibition of BACE1 (unknown origin) using Rh-EVNNLDAEFK fluorogenic peptide as substrate incubated for 3 hrs by FRET assay.
The target in test [1] is Amyloid-beta precursor protein (Homo sapiens, UniProt P05067). Briefly: Inhibition of self-induced aggregation amyloid beta (1 to 40) (unknown origin) incubated for 24 hrs by Thioflavin T based fluorometric assay.
Chain of Amyloid-beta precursor protein (P05067 whole entry): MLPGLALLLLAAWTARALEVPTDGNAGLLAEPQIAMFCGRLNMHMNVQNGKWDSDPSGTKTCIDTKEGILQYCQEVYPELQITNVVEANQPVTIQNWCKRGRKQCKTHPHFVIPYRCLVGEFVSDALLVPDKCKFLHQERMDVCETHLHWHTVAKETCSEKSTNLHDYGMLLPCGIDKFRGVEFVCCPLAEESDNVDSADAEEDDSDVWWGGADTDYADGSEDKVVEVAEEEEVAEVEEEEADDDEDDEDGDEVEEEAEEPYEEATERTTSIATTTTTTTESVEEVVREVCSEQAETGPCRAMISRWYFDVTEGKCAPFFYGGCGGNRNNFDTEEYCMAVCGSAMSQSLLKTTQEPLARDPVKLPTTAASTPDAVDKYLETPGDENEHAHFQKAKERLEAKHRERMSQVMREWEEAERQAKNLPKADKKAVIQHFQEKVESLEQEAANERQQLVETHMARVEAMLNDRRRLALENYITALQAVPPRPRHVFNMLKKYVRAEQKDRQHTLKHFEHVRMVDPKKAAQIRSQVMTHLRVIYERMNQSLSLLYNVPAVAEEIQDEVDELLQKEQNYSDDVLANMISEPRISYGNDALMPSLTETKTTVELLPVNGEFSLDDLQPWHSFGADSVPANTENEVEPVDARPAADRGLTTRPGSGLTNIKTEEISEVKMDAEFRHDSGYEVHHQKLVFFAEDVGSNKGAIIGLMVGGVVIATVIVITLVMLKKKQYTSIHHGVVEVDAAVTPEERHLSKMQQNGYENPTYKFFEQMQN

Where only a bound is given, the exact number is not on record here.

Chain of Beta-secretase 1 (P56817 whole entry): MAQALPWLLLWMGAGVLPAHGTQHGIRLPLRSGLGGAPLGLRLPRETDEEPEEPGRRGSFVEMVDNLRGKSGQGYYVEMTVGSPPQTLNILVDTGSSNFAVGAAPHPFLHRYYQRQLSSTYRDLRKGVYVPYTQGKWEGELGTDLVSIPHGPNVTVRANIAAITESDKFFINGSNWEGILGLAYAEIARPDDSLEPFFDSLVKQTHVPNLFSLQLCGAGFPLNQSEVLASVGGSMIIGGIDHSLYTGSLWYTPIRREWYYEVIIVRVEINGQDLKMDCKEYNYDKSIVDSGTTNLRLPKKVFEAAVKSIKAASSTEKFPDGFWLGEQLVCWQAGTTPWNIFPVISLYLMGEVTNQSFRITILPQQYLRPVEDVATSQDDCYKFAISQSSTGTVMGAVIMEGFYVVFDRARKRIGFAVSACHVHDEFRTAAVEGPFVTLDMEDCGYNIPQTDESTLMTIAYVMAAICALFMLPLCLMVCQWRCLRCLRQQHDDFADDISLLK

With `CC(C)=CCC/C(C)=C/CC/C(C)=C/Cc1c(O)cc(C)c(C(=O)O)c1O` [GRIFOLIC ACID], 1.4 µM corresponded to half-maximal inhibition on Beta-secretase 1 (IC50).

In the case of `C/C(=C\Cc1c(O)cc(C)c(C(=O)O)c1O)CC/C=C(\C)CC[C@H](O)C(C)(C)O`, the IC50 in test [1] turned out to be 53.3 µM; at Beta-secretase 1, 34.4 µM.

`COc1c(O)c(O)c(C(=O)O)c(C)c1C/C=C(\C)CC/C=C(\C)CCC=C(C)C`: the results for the IC50 (in test [1]; on Beta-secretase 1) were 6.6 µM and 1.6 µM, respectively.

Take `COC(=O)c1c(C)cc(O)c(C/C=C(\C)CCCC2=C/C(=C\C(C)(C)O)OC2=O)c1O`: the IC50 in test [1] was 40.7 µM; at Beta-secretase 1, 10.9 µM.

On to `COC(=O)c1c(C)c(C/C=C(\C)CC/C=C(\C)CCC=C(C)C)c(OC)c(O)c1O`, for which the IC50 is 50.3 µM in test [1] and above 100 µM against Beta-secretase 1.

For `CC(C)=CCC/C(C)=C/CC/C(C)=C/Cc1c(O)cc(C)cc1O` [GRIFOLIN], at Beta-secretase 1, inhibition was half-maximal at 6.1 µM (IC50).

`C/C(=C\Cc1c(O)cc(C)c(C(=O)O)c1O)CCCC1=C/C(=C\C(C)(C)O)OC1=O`: the IC50 in test [1] worked out at 51.4 µM; against Beta-secretase 1, 10.5 µM.

The term IC50 denotes the concentration that gives 50% inhibition. Low values mean inhibition by little substance, high ones a need for much substance.
